Measurements published in ChEMBL document CHEMBL4382202, “1-(2-Hydroxybenzoyl)-thiosemicarbazides are promising antimicrobial agents targeting d-alanine-d-alanine ligase in bacterio” (Eur J Med Chem, 2018).
≈ marks a conversion by molar mass, not a printed value.

How the values were obtained:
[1] = Inhibition of 6His-tagged Staphylococcus aureus Ddl expressed in Escherichia coli M15 (pREP4) using ATP or d-alanine as substrate after 20 mins
[2] = target: T1, D-alanine--D-alanine ligase (Enterococcus faecalis (strain ATCC 700802 / V583), UniProt Q47758); assay: Inhibition of Enterococcus faecalis JH2-2 C-terminal 6His-tagged DdlB expressed in Escherichia coli LMG194 preincubated for 30 mins followed by substrate addition and measured after 20 mins by Biomol Green reagent assay
T1 sequence (Q47758 whole entry): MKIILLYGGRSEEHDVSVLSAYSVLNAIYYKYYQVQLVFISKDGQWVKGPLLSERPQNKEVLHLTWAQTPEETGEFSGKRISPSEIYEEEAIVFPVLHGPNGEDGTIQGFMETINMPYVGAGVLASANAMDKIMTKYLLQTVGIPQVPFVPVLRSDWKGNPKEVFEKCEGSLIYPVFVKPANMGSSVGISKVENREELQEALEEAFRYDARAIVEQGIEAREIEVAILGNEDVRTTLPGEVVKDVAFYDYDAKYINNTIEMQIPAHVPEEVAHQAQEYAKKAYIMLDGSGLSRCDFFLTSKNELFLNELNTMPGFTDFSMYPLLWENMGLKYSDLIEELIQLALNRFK

Staphylococcus aureus [3] = assay: Antibacterial activity against Staphylococcus aureus ATCC 25923 after 18 to 24 hrs by microdilution assay; assay type: functional
Enterococcus faecalis [4] = assay: Antibacterial activity against Enterococcus faecalis ATCC 29212 after 18 to 24 hrs by microdilution assay; assay type: functional
Enterococcus faecalis [5] = assay: Antibacterial activity against vancomycin-resistant Enterococcus faecalis BM 4390 after 18 to 24 hrs by microdilution assay; assay type: functional
Enterococcus faecalis [6] = assay: Antibacterial activity against vancomycin-resistant Enterococcus faecalis JH2-2::C1 after 18 to 24 hrs by microdilution assay; assay type: functional
Enterococcus faecalis [7] = assay: Antibacterial activity against vancomycin-resistant Enterococcus faecalis BM 4575 clinical isolate after 18 to 24 hrs by microdilution assay; assay type: functional
Staphylococcus aureus [8] = assay: Antibacterial activity against methicillin and vancomycin intermediate resistant Staphylococcus aureus MU50 after 18 to 24 hrs by microdilution assay; assay type: functional
Staphylococcus aureus [9] = assay: Antibacterial activity against methicillin and linezolid resistant Staphylococcus aureus NRS 119 clinical isolate after 18 to 24 hrs by microdilution assay; assay type: functional
Staphylococcus aureus [10] = assay: Antibacterial activity against community-acquired methicillin and erythromycin resistant Staphylococcus aureus SA 325 after 18 to 24 hrs by microdilution assay; assay type: functional
Staphylococcus aureus [11] = assay: Antibacterial activity against hospital-acquired methicillin/ciprofloxacin/moxifloxacin resistant Staphylococcus aureus SA 481 after 18 to 24 hrs by microdilution assay; assay type: functional
Staphylococcus aureus [12] = assay: Antibacterial activity against hospital-acquired methicillin and vacomycin resistant Staphylococcus aureus VRS-1 after 18 to 24 hrs by microdilution assay; assay type: functional
THP-1 = assay: Cytotoxicity against human THP1 cells assessed as decrease in cell viability at 1 to 5 times MIC after 24 hrs by trypan blue exclusion assay relative to control; assay type: cell-based; settings: thp-1, 24 h
[13] = Inhibition of Bacillus cereus beta-lactamase using nitrocefin as substrate preincubated for 15 mins followed by substrate addition and measured after 60 mins by spectrophotometric analysis
[14] = target: Secretory phospholipase A2; assay: Inhibition of human sPLA2; assay type: protein assay
[15] = target: Voltage-gated inwardly rectifying potassium channel KCNH2 (Homo sapiens, UniProt Q12809); assay: Displacement of [3H]-Dofetilide from recombinant human ERG after 60 mins by scintillation counting analysis
Voltage-gated inwardly rectifying potassium channel KCNH2, sequence (Q12809 whole entry): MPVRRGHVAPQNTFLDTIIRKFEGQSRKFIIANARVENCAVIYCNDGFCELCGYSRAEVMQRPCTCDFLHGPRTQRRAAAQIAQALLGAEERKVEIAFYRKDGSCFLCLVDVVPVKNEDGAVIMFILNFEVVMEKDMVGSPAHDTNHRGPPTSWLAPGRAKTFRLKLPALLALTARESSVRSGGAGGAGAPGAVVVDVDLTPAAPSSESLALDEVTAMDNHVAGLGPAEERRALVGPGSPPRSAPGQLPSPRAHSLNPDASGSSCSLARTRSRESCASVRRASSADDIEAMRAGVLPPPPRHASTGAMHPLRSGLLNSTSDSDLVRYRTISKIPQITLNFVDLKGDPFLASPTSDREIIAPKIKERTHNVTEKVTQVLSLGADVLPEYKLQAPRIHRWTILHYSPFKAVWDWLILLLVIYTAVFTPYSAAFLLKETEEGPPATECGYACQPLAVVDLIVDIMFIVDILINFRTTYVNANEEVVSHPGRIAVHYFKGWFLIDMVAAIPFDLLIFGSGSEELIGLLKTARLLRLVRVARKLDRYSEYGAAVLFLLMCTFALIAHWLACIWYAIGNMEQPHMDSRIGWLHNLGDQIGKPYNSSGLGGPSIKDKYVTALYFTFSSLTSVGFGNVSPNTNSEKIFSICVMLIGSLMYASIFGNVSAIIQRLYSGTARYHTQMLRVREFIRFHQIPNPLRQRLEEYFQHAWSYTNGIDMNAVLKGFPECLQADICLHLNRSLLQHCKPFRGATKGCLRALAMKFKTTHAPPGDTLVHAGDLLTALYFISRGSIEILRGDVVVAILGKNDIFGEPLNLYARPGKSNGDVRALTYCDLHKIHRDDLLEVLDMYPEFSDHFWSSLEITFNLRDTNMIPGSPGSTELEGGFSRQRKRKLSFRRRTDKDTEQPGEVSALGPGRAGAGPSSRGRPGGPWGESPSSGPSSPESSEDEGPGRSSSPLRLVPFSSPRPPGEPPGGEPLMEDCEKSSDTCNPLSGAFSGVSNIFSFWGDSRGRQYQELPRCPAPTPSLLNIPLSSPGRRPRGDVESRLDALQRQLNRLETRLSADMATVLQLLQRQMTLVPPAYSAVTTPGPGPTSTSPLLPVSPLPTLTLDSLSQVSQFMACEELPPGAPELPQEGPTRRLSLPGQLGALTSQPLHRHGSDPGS

[16] = target: T2, MAO-A (amine oxidase [flavin-containing] A) (Homo sapiens, UniProt P21397); assay: Inhibition of human MAOA at 10 uM using kynuramine as substrate after 20 mins by spectrophotometric analysis relative to control; settings: probe kynuramine
T2 sequence (P21397 whole entry): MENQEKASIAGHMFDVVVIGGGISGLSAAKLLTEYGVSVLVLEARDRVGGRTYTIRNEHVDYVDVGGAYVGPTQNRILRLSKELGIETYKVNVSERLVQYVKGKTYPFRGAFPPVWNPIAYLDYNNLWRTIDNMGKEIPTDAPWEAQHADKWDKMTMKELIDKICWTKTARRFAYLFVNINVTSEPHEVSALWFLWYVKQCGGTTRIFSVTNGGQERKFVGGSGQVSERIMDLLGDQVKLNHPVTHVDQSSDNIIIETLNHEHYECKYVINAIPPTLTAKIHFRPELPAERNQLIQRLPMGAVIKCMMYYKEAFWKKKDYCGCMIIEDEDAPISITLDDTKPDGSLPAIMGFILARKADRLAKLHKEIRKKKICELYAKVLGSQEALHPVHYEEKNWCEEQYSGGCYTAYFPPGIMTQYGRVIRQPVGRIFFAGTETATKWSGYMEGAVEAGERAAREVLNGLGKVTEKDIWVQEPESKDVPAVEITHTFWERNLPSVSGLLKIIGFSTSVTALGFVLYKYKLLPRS

hERG (KCNH2) = hERG (KCNH2) (Homo sapiens, UniProt Q12809); assay: Displacement of [3H]-Dofetilide from recombinant human ERG at 10 uM after 60 mins by scintillation counting analysis relative to control; settings: probe [3H]-dofetilide
hERG (KCNH2), sequence (Q12809 whole entry): as the sequence (Q12809 whole entry) above

Staphylococcus aureus [17] = assay: Bactericidal activity against Staphylococcus aureus ATCC 25923 assessed as bacterial cell killing level at 0.1 mM after 24 hrs by time kill assay; assay type: functional
[18] = Inhibition of full-length 6His-tagged Mycobacterium tuberculosis H37Rv Ddl expressed in Escherichia coli BL21(DE3)pLysS by UV-Vis spectrophotometric analysis
[19] = test system: Mycobacterium tuberculosis; assay: Antitubercular activity against Mycobacterium tuberculosis H37Rv; assay type: functional
[20] = target: T1, D-alanine--D-alanine ligase; assay: Inhibition of Enterococcus faecalis Ddl

Compound: CC(C)(CCl)C(=O)Nc1ccc(C(F)(F)F)cc1
- Ki [1]: 4 µM

Compound: O=C(NNC(=S)Nc1ccc(Cl)c(Cl)c1)c1ccccc1O
- IC50 [2]: 1.54 µM
- MIC (Staphylococcus aureus [3]): 100 µM (≈ 35.6 µg/mL)
- MIC (Enterococcus faecalis [4]): 50 µM (≈ 17.8 µg/mL)
- MIC (Enterococcus faecalis [5]): 50 µM (≈ 17.8 µg/mL)
- MIC (Enterococcus faecalis [6]): 100 µM (≈ 35.6 µg/mL)
- MIC (Enterococcus faecalis [7]): 50 µM (≈ 17.8 µg/mL)
- MIC (Staphylococcus aureus [8]): 100 µM (≈ 35.6 µg/mL)
- MIC (Staphylococcus aureus [9]): 50 µM (≈ 17.8 µg/mL)
- MIC (Staphylococcus aureus [10]): 50 µM (≈ 17.8 µg/mL)
- MIC (Staphylococcus aureus [11]): 100 µM (≈ 35.6 µg/mL)
- MIC (Staphylococcus aureus [12]): 50 µM (≈ 17.8 µg/mL)
- Activity (THP-1): 12 to 25%
- IC50 [13]: 0.011 µM
- IC50 [14]: 20 µM
- IC50 [15]: 0.08 µM
- inhibition at 20 min, 10 µM [16]: ≤ 30%
- inhibition at 1 h, 10 µM (hERG (KCNH2)): ≤ 30%
- Activity (Staphylococcus aureus [17]): 99%

Compound: N[C@@H]1CONC1=O [CYCLOSERINE]
- Ki [18]: 25 µM
- MIC [19]: 50 µg/mL (≈ 490 µM)
- MIC (Staphylococcus aureus [3]): 313 µM (≈ 32 µg/mL)
- MIC (Enterococcus faecalis [4]): 1250 µM (≈ 128 µg/mL)

Compound: CCOC(=O)c1cc(Br)c2nc(-c3cccc(CN)c3)oc2c1
- IC50 [20]: 432 µM

Compound: O=C(NNC(=S)Nc1ccc(Cl)c(Cl)c1)c1ccc(I)cc1O
- IC50 [2]: 0.93 µM
- MIC (Staphylococcus aureus [3]): 100 µM (≈ 48.2 µg/mL)
- MIC (Enterococcus faecalis [4]): > 400 µM
- MIC (Enterococcus faecalis [5]): > 100 µM
- MIC (Enterococcus faecalis [6]): > 100 µM
- MIC (Enterococcus faecalis [7]): > 100 µM
- MIC (Staphylococcus aureus [8]): > 100 µM
- MIC (Staphylococcus aureus [9]): > 100 µM
- MIC (Staphylococcus aureus [10]): > 100 µM
- MIC (Staphylococcus aureus [11]): > 100 µM
- MIC (Staphylococcus aureus [12]): > 100 µM
